Test results reported in PMC11393688, “Design and synthesis of new 1,2,4-oxadiazole/quinazoline-4-one hybrids with antiproliferative activity as multitargeted inhibitors” (Frontiers in Chemistry, 2024).

How the values were obtained:
[1] = Cell viability, MTT test on normal cell line; type: cell-based; conditions: human, MCF-10A mammary gland epithelial cells (normal cell line), MCF-10A normal cells, 4 days incubation
Protocol: The human mammary gland epithelial (MCF-10A) normal cell line was used to test the viability of novel compounds 9a-o ([Mahmoud et al., 2022]; [Mekheimer et al., 2022]). After 4 days of incubation on MCF-10A cells, the cell viability of compounds 9a-o was determined using the MTT test.
The human mammary gland epithelial (MCF-10A) normal cell line was used to test the viability of compounds 9a-o ([Mahmoud et al., 2022]; [Mekheimer et al., 2022]). Refer to Supplementary Appendix A (Supplementary Material) for more details.
4.2. Biological evaluation
4.2.1. Cytotoxic activity using MTT Assay and evaluation of IC50
MTT assay was carried out to study the effect of compounds on mammary epithelial cells (MCF-10A). The medium in which cells were propagated contained Dulbecco's modified Eagle's medium (DMEM)/ Ham's F-12 medium (1:1) supplemented with epidermal growth factor (20 ng/mL), hydrocortisone (500 ng/mL), insulin (10 μg/mL), 2 mM glutamine and 10% foetal calf serum.
After every 2-3 days, the cells were passaged using trypsin ethylenediamine tetra acetic acid (EDTA). The cells were seeded at a density of 10^4 cells mL-1 in flat-bottomed culture plates containing 96 wells each. After 24 h, medium was removed from the plates and the compounds in (in 0.1% DMSO) were added (in 200 μL medium to yield a final concentration of 0.1% v/v) to the wells of plates. A single compound was designated with four wells followed by incubation of plates for 96h at 37°C. After incubation, medium was removed completely from the plates followed by addition of MTT (0.4 mg/mL in medium) to each well and subsequent incubation of plates for 3h. MTT (along with the medium) was removed and DMSO (150μL) was added to each well of the culture plates, followed by vertexing and subsequent measurement of absorbance (at 540 nm) using microplate reader. The data are shown as percentage inhibition of proliferation in comparison with controls containing 0.1% DMSO.

[2] = system: four human cancer cell lines (HT-29, Panc-1, A-549, MCF-7); assay: Average antiproliferative activity (GI50) over four cancer cell lines; type: cell-based; conditions: average IC50 against the four cancer cell lines
Protocol: (§1) 4.2.1.2. Assay for antiproliferative effect
(§2) To explore the antiproliferative potential of compounds MTT assay was performed according to previously reported procedure using different cell lines to explore the antiproliferative potential of […]
(§3) calculate the total nuclear DNA, a fluorescent dye (propidium iodide, PI) is used which can attach to the DNA, thus offering a quick and precise technique. PI cannot pass through the cell membrane and its signal intensity can be considered as directly proportional to quantity of cellular DNA.
(§4) Cells whose cell membranes are damaged or have changed permeability are counted as dead ones.
(§5) The assay was performed by seeding the cells of different cell lines at a density of 3000-7500 cells/well (in 200µl medium) in culture plates followed by incubation for 24h at 37 °C in humidified 5% CO2/95% air atmospheric conditions. The medium was removed; the compounds were added to the plates at 10 µM concentrations (in 0.1% DMSO) in triplicates, followed by incubation for 48 h. DMSO (0.1%) was used as control. After incubation, medium was removed […]
(§6) 80 °C, the plates were allowed to freeze for 24 h, followed by thawing at 25 °C. […]
(§7) (Polar-Star BMG Tech) was used to record the readings at excitation and emission wavelengths of 530 and 620 nm for each well. The percentage cytotoxicity of compounds was calculated using […]
(§8) Where ATC= Absorbance of treated cells and AC= Absorbance of control. Erlotinib was used as positive control in the assay.

[3] = system: lung cancer (A-549) cell line; assay: Antiproliferative MTT assay, A-549; type: cell-based; conditions: Homo sapiens, A549, A-549 lung cancer cells, read-out: Antiproliferative activity IC50 ± SEM A-549
Protocol: as §1, §2, §3, §4, §5, §6, §7, §8

[4] = system: colon cancer (HT-29) cell line; assay: Antiproliferative MTT assay, HT-29; type: cell-based; conditions: Homo sapiens, HT-29 colon cancer cells, read-out: Antiproliferative activity IC50 ± SEM HT-29
[5] = system: breast cancer (MCF-7) cell line; assay: Antiproliferative MTT assay, MCF-7; type: cell-based; conditions: Homo sapiens, MCF7, MCF-7 breast cancer cells, read-out: Antiproliferative activity IC50 ± SEM MCF-7
Protocol: as §1, §2, §3, §4, §5, §6, §7, §8

[6] = system: pancreatic cancer (Panc-1) cell line; assay: Antiproliferative MTT assay, Panc-1; type: cell-based; conditions: Homo sapiens, Panc-1 pancreatic cancer cells, read-out: Antiproliferative activity IC50 ± SEM Panc-1
Protocol: as §1, §2, §3, §4, §5, §6, §7, §8

BRAF^V600E = target: T1, BRAF^V600E (Homo sapiens, UniProt P15056, V600E); assay: BRAF^V600E kinase inhibitory assay; type: biochemical, Mouse; conditions: read-out: BRAF^V600E inhibition IC50 ± SEM
T1 construct: Mouse full-length GST-tagged BRAFV600E; GST; purchased Invitrogen PV3849
Protocol: Refer to Supplementary Appendix A for more details. […]
4.2.1.4. BRAF kinase assay […]
against BRAF. Mouse full-length GST-tagged BRAFV600E (7.5 ng, Invitrogen, PV3849) was pre-incubated with drug (1 µL) and assay dilution buffer (4 µL) for 60 min at 25 °C. In assay dilution buffer, a solution (5 µL) containing MgCl2 (30 mM), ATP (200 µM), recombinant human full length (200 ng) […] N-terminal His-tagged MEK1 (Invitrogen) was added to start the assay, subsequent to incubation for 25 min at 25 °C. The assay was stopped using 5X protein denaturing buffer (LDS) solution (5 µL). To further denature the protein, heat (70° C) was applied for 5 min.
10 µL of each reaction was loaded into the precast plates and electrophoresis was allowed to proceed. After completion of electrophoresis, the front part of the precast gel plate (holding hot ATP) was cut and afterwards cast-off. The dried gel was developed using a phosphor screen. A […]
served as positive control. […]
(FITC) and propidium iodide (PI) staining kit (BD Pharmingen, San Diego, USA). […]
4.3. Statistical analysis
Computerized Prism 5 program was used to statistically analyzed data using one-way ANOVA test followed by Tukey’s as post ANOVA for multiple comparison at P ≤.05. Data were presented

EGFR = target: T2, EGFR (Homo sapiens, UniProt P00533); assay: EGFR-TK inhibitory assay; type: biochemical; conditions: read-out: EGFR inhibition IC50 ± SEM
T2 construct: amino acids 645–1186; His6 (N); made in house; host or cells: Sf-9 insect cells (baculovirus; pBlueBacHis2B / pFASTBacHTc)
Protocol: 4.2.1.3. EGFR inhibitory assay
Sf-9 cells were infected for 72h for protein expression. […]
centrifugation for 20 min.
Histidine-linked proteins were first eluted with 250 and then […]
using wash buffer. Europium-tagged antiphosphotyrosine antibody (75 µL, 400 ng) was added to each well followed by incubation of 1h and then washing of the plates using buffer. The enhancement solution was added to each well and the signal was recorded at excitation and […]
The autophosphorylation percentage inhibition by compounds was calculated using the following equation: […]
(1 picture or pasted object on this page, not shown here)

T1 sequence (P15056 2-766 V600E limits assumed): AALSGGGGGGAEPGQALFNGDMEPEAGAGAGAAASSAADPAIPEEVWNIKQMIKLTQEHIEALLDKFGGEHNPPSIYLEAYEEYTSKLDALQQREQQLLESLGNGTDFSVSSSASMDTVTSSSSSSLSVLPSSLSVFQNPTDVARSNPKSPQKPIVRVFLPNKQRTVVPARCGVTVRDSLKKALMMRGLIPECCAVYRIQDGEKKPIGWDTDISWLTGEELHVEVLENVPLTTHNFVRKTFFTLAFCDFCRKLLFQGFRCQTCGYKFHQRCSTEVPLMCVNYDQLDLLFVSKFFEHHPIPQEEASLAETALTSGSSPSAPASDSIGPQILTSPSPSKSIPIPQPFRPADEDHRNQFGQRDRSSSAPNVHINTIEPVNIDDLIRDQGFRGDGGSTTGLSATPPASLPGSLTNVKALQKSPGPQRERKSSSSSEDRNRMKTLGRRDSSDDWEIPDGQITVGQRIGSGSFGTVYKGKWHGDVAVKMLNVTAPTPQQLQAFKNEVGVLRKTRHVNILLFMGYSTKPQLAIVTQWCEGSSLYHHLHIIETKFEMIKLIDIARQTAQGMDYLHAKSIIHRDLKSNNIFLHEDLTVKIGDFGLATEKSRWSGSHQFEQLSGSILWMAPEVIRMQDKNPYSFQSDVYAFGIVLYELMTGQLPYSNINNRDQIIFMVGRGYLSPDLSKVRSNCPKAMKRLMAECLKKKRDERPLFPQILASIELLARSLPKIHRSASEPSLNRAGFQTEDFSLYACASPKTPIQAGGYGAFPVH
T2 sequence (P00533 669-1210): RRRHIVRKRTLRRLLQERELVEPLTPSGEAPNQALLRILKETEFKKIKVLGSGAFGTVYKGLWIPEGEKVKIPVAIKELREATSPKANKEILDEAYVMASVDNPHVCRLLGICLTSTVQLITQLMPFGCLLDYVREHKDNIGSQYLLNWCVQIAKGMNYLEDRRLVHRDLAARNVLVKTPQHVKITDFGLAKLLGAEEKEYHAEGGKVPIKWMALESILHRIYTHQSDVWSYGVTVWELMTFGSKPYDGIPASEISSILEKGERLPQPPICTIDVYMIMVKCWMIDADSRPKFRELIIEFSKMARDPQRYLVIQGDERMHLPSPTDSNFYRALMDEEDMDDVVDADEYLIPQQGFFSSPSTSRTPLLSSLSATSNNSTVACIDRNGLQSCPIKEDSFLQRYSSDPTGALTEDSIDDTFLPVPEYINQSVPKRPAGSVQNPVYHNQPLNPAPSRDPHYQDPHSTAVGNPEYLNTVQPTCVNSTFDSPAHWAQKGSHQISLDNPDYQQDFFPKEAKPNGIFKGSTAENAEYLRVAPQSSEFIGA

Structure (SMILES) | GI50 [2] [nM] | IC50 [3] [nM] | IC50 [4] [nM] | melting point [°C] | IC50 [5] [nM] | IC50 [6] [nM] | IC50 (BRAF^V600E) [nM] | IC50 (EGFR) [nM] | viability at 96 h, 50 µM [1] [%]
O=c1c2ccccc2nc(SCc2nc(-c3ccccc3)no2)n1-c1ccccc1 [Compound 9a, 2-((3-Phenyl-1,2,4-oxadiazol-5-yl)methylthio)-3-phenylquinazolin-4(3H)-one] | 48 | 46 ± 4 | 48 ± 4 | 162 to 164 | 50 ± 4 | 48 ± 4 |  |  | 90
Cc1ccc(-n2c(SCc3nc(-c4ccccc4)no3)nc3ccccc3c2=O)cc1 [Compound 9d, 2-((3-Phenyl-1,2,4-oxadiazol-5-yl)methylthio)-3-p-tolylquinazolin-4(3H)-one] | 55 | 54 ± 4 | 55 ± 5 | 168 to 170 | 58 ± 5 | 54 ± 5 |  |  | 90
Cc1ccc(-n2c(SCc3nc(-c4ccc(Cl)cc4)no3)nc3ccccc3c2=O)cc1 [Compound 9e, 2-((3-(4-Chlorophenyl)-1,2,4-oxadiazol-5-yl)methylthio)-3-p-tolylquinazolin-4(3H)-one] | 42 | 40 ± 3 | 42 ± 4 | 156 to 158 | 44 ± 4 | 42 ± 4 |  |  | 91
COc1ccc(-c2noc(CSc3nc4ccccc4c(=O)n3-c3cccc(C)c3)n2)cc1 [Compound 9i, 2-((3-(4-Methoxyphenyl)-1,2,4-oxadiazol-5-yl)methylthio)-3-m-tolylquinazolin-4(3H)-one] | 67 | 65 ± 6 | 68 ± 6 | 194 to 196 | 69 ± 6 | 66 ± 6 |  |  | 91
CCn1c(SCc2nc(-c3ccccc3)no2)nc2ccccc2c1=O [Compound 9j, 2-((3-Phenyl-1,2,4-oxadiazol-5-yl)methylthio)-3-ethylquinazolin-4(3H)-one] | 70 | 69 ± 6 | 68 ± 6 | 114 to 116 | 76 ± 7 | 68 ± 6 |  |  | 90
C=CCn1c(SCc2nc(-c3ccccc3)no2)nc2ccccc2c1=O [Compound 9m, 2-((3-Phenyl-1,2,4-oxadiazol-5-yl)methylthio)-3-allylquinazolin-4(3H)-one] | 63 | 62 ± 6 | 62 ± 6 | 110 to 112 | 65 ± 6 | 64 ± 6 |  |  | 92
C=CCn1c(SCc2nc(-c3ccc(Cl)cc3)no2)nc2ccccc2c1=O [Compound 9n, 2-((3-(4-Chlorophenyl)-1,2,4-oxadiazol-5-yl)methylthio)-3-allylquinazolin-4(3H)-one] | 45 | 43 ± 4 | 44 ± 4 | 115 to 117 | 47 ± 4 | 45 ± 4 |  |  | 91
C#Cc1cccc(Nc2ncnc3cc(OCCOC)c(OCCOC)cc23)c1 [Erlotinib, reference compound] | 33 | 30 ± 3 | 30 ± 3 |  | 40 ± 3 | 30 ± 3 |  |  | 

Continued by falling GI50 [2], values first:

GI50 [2] [nM] | IC50 [3] [nM] | IC50 [4] [nM] | melting point [°C] | IC50 [5] [nM] | IC50 [6] [nM] | IC50 (BRAF^V600E) [nM] | IC50 (EGFR) [nM] | Structure (SMILES) | viability at 96 h, 50 µM [1] [%]
57 | 56 ± 4 | 57 ± 5 | 122 to 124 | 59 ± 5 | 57 ± 5 |  |  | C=CCn1c(SCc2nc(-c3ccc(OC)cc3)no2)nc2ccccc2c1=O [Compound 9o, 2-((3-(4-Methoxyphenyl)-1,2,4-oxadiazol-5-yl)methylthio)-3-allylquinazolin 4(3H)-one] | 89
52 | 50 ± 4 | 52 ± 5 | 165 to 167 | 53 ± 5 | 52 ± 5 |  |  | COc1ccc(-c2noc(CSc3nc4ccccc4c(=O)n3-c3ccc(C)cc3)n2)cc1 [Compound 9f, 2-((3-(4-Methoxyphenyl)-1,2,4-oxadiazol-5-yl)methylthio)-3-p-tolylquinazolin-4(3H)-one] | 92
50 | 49 ± 4 | 50 ± 5 | 170 to 172 | 52 ± 5 | 50 ± 5 |  |  | Cc1cccc(-n2c(SCc3nc(-c4ccccc4)no3)nc3ccccc3c2=O)c1 [Compound 9g, 2-((3-Phenyl-1,2,4-oxadiazol-5-yl)methylthio)-3-m-tolylquinazolin-4(3H)-one] | 90
38 | 36 ± 3 | 37 ± 3 | 134 to 136 | 40 ± 4 | 38 ± 3 | 70 ± 5 | 91 ± 7 | CCn1c(SCc2nc(-c3ccc(OC)cc3)no2)nc2ccccc2c1=O [Compound 9l, 2-((3-(4-Methoxyphenyl)-1,2,4-oxadiazol-5-yl)methylthio)-3-ethylquinazolin-4(3H)-one] | 90
34 | 32 ± 3 | 34 ± 3 | 118 to 120 | 35 ± 3 | 34 ± 3 | 62 ± 5 | 84 ± 6 | CCn1c(SCc2nc(-c3ccc(Cl)cc3)no2)nc2ccccc2c1=O [Compound 9k, 2-((3-(4-Chlorophenyl)-1,2,4-oxadiazol-5-yl)methylthio)-3-ethylquinazolin-4(3H)-one] | 93
